“And” between values parts separate entries of the source, which are not always exact repeats. Equal values may be shown once. Toxic doses and inconclusive results are not listed. The calls were made as follows: active = survival T/C of 150% or more; inactive = T/C below 125% in these data.
Test system: CD2F1 mice, L1210 leukemia ip, survival T/C
Assay: NCI In Vivo Anticancer Drug Screen. Data for tumor model L1210 Leukemia (intraperitoneal) in CD2F1 (CDF1) mice
Conditions: higher = longer survival
Procedure, shortened: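 In this screen, transplantable tumors were grown in mice given either the compound or its vehicle. Results were expressed as the treated measurement relative to the control measurement.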

[1] = endpoint: mean survival time, dose: 100.0 mg/kg/injection, schedule: Q01DX009 (ip), vehicle: saline with Tween-80
[2] = endpoint: mean survival time, dose: 100.0 mg/kg/injection, schedule: Q04DX003 (ip), vehicle: saline with Tween-80
[3] = endpoint: mean survival time, dose: 200.0 mg/kg/injection, schedule: Q01DX009 (ip), vehicle: saline with Tween-80
[4] = endpoint: mean survival time, dose: 200.0 mg/kg/injection, schedule: Q04DX003 (ip), vehicle: saline with Tween-80
[5] = endpoint: mean survival time, dose: 400.0 mg/kg/injection, schedule: Q01DX009 (ip), vehicle: saline with Tween-80
[6] = endpoint: mean survival time, dose: 400.0 mg/kg/injection, schedule: Q04DX003 (ip), vehicle: saline with Tween-80
[7] = endpoint: mean survival time, dose: 100.0 mg/kg/injection, schedule: Q01DX009 (ip), vehicle: saline
[8] = endpoint: mean survival time, dose: 200.0 mg/kg/injection, schedule: Q01DX009 (ip), vehicle: saline

Measured: T/C

Nc1cccc(=O)[nH]1
inactive: endpoint: mean survival time, dose: 12.5 mg/kg/injection, schedule: Q01DX009 (ip), vehicle: suspension in saline 96 % of control | endpoint: mean survival time, dose: 25.0 mg/kg/injection, schedule: Q01DX009 (ip), vehicle: suspension in saline 96 % of control and 104 % of control | endpoint: mean survival time, dose: 50.0 mg/kg/injection, schedule: Q01DX009 (ip), vehicle: suspension in saline 95 % of control and 96 % of control | endpoint: mean survival time, dose: 100.0 mg/kg/injection, schedule: Q01DX009 (ip), vehicle: suspension in saline 90 % of control and 96 % of control | endpoint: mean survival time, dose: 200.0 mg/kg/injection, schedule: Q01DX009 (ip), vehicle: suspension in saline 102 % of control and 107 % of control | endpoint: mean survival time, dose: 400.0 mg/kg/injection, schedule: Q01DX009 (ip), vehicle: suspension in saline 104 % of control

CC(=O)C(C(c1ccccc1)C1CCCc2ccccc21)N1CCOCC1 (centres undefined)
inactive: [1] 104 % of control | [2] 103 % of control | [3] 98 % of control | [4] 100 % of control | [5] 95 % of control | [6] 101 % of control

CC(NC(=O)OCc1ccccc1)C(=O)NC(CC(=O)O)C(=O)O (centres undefined)
inactive: endpoint: mean survival time, dose: 100.0 mg/kg/injection, schedule: Q04DX003 (ip), vehicle: saline 92 % of control

CSc1nc2cc(S(=O)(=O)N3CCCCC3)ccc2s1
inactive: [1] 93 % of control | [2] 89 % of control | [3] 95 % of control | [4] 89 % of control | [5] 93 % of control | [6] 86 % of control

CC(=O)OCC1OC(OC(C)=O)C(NC(=O)NS(=O)(=O)c2ccc(C)cc2)C(OC(C)=O)C1OC(C)=O (centres undefined)
inactive: endpoint: mean survival time, dose: 12.5 mg/kg/injection, schedule: Q01DX009 (ip), vehicle: other 105 % of control | endpoint: mean survival time, dose: 25.0 mg/kg/injection, schedule: Q01DX009 (ip), vehicle: other 98 % of control | endpoint: mean survival time, dose: 50.0 mg/kg/injection, schedule: Q01DX009 (ip), vehicle: other 93 % of control | endpoint: mean survival time, dose: 100.0 mg/kg/injection, schedule: Q01DX009 (ip), vehicle: other 94 % of control | endpoint: mean survival time, dose: 200.0 mg/kg/injection, schedule: Q01DX009 (ip), vehicle: other 94 % of control

Nc1ncnc2c1ncn2C1OC(COP(N)(N)=O)C(O)C1O (centres undefined)
inactive: endpoint: mean survival time, dose: 12.5 mg/kg/injection, schedule: Q01DX005 (ip), vehicle: distilled water + Tween-80 105 % of control | endpoint: mean survival time, dose: 25.0 mg/kg/injection, schedule: Q01DX005 (ip), vehicle: distilled water + Tween-80 98 % of control | endpoint: mean survival time, dose: 50.0 mg/kg/injection, schedule: Q01DX005 (ip), vehicle: distilled water + Tween-80 96 % of control | endpoint: mean survival time, dose: 100.0 mg/kg/injection, schedule: Q01DX005 (ip), vehicle: distilled water + Tween-80 102 % of control | endpoint: mean survival time, dose: 200.0 mg/kg/injection, schedule: Q01DX005 (ip), vehicle: distilled water + Tween-80 96 % of control

CC[C@@H](C)[C@@H]1NC(=O)C(NC(=O)C(CC(C)C)N(C)C(=O)C2CCCN2C(=O)C(C)O)C(C)OC(=O)C(Cc2ccc(OC)cc2)N(C)C(=O)C2CCCN2C(=O)C(CC(C)C)NC(=O)C(C)C(=O)C(C(C)C)OC(=O)C[C@H]1O (some centres undefined)
inactive: endpoint: median survival time, dose: 10.0 micrograms/kg/injection, schedule: Q01DX009 (ip), vehicle: distilled water + alcohol 104 % of control | endpoint: median survival time, dose: 25.0 micrograms/kg/injection, schedule: Q01DX009 (ip), vehicle: distilled water + alcohol 111 % of control | endpoint: median survival time, dose: 40.0 micrograms/kg/injection, schedule: Q01DX009 (ip), vehicle: distilled water + alcohol 104 % of control | endpoint: median survival time, dose: 50.0 micrograms/kg/injection, schedule: Q01DX009 (ip), vehicle: distilled water + alcohol 111 % of control | endpoint: median survival time, dose: 80.0 micrograms/kg/injection, schedule: Q01DX009 (ip), vehicle: distilled water + alcohol 112 % of control | endpoint: median survival time, dose: 100.0 micrograms/kg/injection, schedule: Q01DX009 (ip), vehicle: distilled water + alcohol 121 % of control | endpoint: median survival time, dose: 160.0 micrograms/kg/injection, schedule: Q01DX009 (ip), vehicle: distilled water + alcohol 112 % of control

CCOP(=O)(OCC)C(c1ccccc1)(c1ccccc1)c1ccccc1
inactive: endpoint: mean survival time, dose: 100.0 mg/kg/injection, schedule: Q01DX001 (ip), vehicle: Klucel (hydroxypropylcellulose) (HPC) 103 % of control | endpoint: mean survival time, dose: 200.0 mg/kg/injection, schedule: Q01DX001 (ip), vehicle: Klucel (hydroxypropylcellulose) (HPC) 96 % of control | endpoint: mean survival time, dose: 400.0 mg/kg/injection, schedule: Q01DX001 (ip), vehicle: Klucel (hydroxypropylcellulose) (HPC) 102 % of control

ClC1=CCCCC1
inactive: endpoint: mean survival time, dose: 100.0 mg/kg/injection, schedule: Q04DX003 (ip), vehicle: acetone 102 % of control

O=[N+]([O-])c1cc(Cl)cc2c1-c1ccc(Cl)cc1C2Br (centres undefined)
inactive: endpoint: mean survival time, dose: 50.0 mg/kg/injection, schedule: Q01DX001 (ip), vehicle: carboxymethylcellulose (CMC) 104 % of control | endpoint: mean survival time, dose: 100.0 mg/kg/injection, schedule: Q01DX001 (ip), vehicle: carboxymethylcellulose (CMC) 98 % of control | endpoint: mean survival time, dose: 200.0 mg/kg/injection, schedule: Q01DX001 (ip), vehicle: carboxymethylcellulose (CMC) 104 % of control | endpoint: mean survival time, dose: 400.0 mg/kg/injection, schedule: Q01DX001 (ip), vehicle: carboxymethylcellulose (CMC) 104 % of control

C=CC[N+]12CC=C3COC(=O)C(C)(O)C(C)(O)C(C)C(=O)OC(CC1)C32 (centres undefined)
inactive: endpoint: mean survival time, dose: 100.0 mg/kg/injection, schedule: Q04DX003 (ip), vehicle: Klucel (hydroxypropylcellulose) (HPC) 101 % of control | endpoint: mean survival time, dose: 200.0 mg/kg/injection, schedule: Q04DX003 (ip), vehicle: Klucel (hydroxypropylcellulose) (HPC) 90 % of control | endpoint: mean survival time, dose: 400.0 mg/kg/injection, schedule: Q04DX003 (ip), vehicle: Klucel (hydroxypropylcellulose) (HPC) 93 % of control

O=C1NC(=O)NC(C(=O)O)N1
inactive: endpoint: mean survival time, dose: 1.56 mg/kg/injection, schedule: Q01DX009 (ip), vehicle: DMSO 92 % of control | endpoint: mean survival time, dose: 3.12 mg/kg/injection, schedule: Q01DX009 (ip), vehicle: DMSO 96 % of control | endpoint: mean survival time, dose: 6.25 mg/kg/injection, schedule: Q01DX009 (ip), vehicle: DMSO 96 % of control | endpoint: mean survival time, dose: 12.5 mg/kg/injection, schedule: Q01DX009 (ip), vehicle: DMSO 94 % of control and 98 % of control | endpoint: mean survival time, dose: 25.0 mg/kg/injection, schedule: Q01DX009 (ip), vehicle: DMSO 97 % of control and 98 % of control and 101 % of control | endpoint: mean survival time, dose: 50.0 mg/kg/injection, schedule: Q01DX009 (ip), vehicle: DMSO 97 % of control and 100 % of control | endpoint: mean survival time, dose: 100.0 mg/kg/injection, schedule: Q01DX009 (ip), vehicle: DMSO 94 % of control and 97 % of control | endpoint: mean survival time, dose: 200.0 mg/kg/injection, schedule: Q01DX009 (ip), vehicle: DMSO 102 % of control | endpoint: mean survival time, dose: 400.0 mg/kg/injection, schedule: Q01DX009 (ip), vehicle: DMSO 98 % of control

O=C(OCC1OC(n2ccn(C3OC(COC(=O)c4ccccc4)C(OC(=O)c4ccccc4)C3OC(=O)c3ccccc3)c2=S)C(OC(=O)c2ccccc2)C1OC(=O)c1ccccc1)c1ccccc1 (centres undefined)
inactive: endpoint: mean survival time, dose: 12.5 mg/kg/injection, schedule: Q01DX005 (ip), vehicle: water 102 % of control | endpoint: mean survival time, dose: 25.0 mg/kg/injection, schedule: Q01DX005 (ip), vehicle: water 104 % of control | endpoint: mean survival time, dose: 50.0 mg/kg/injection, schedule: Q01DX005 (ip), vehicle: water 94 % of control | endpoint: mean survival time, dose: 100.0 mg/kg/injection, schedule: Q01DX005 (ip), vehicle: water 94 % of control | endpoint: mean survival time, dose: 200.0 mg/kg/injection, schedule: Q01DX005 (ip), vehicle: water 94 % of control

NC(CSC(c1ccccc1)(c1ccccc1)c1cccs1)C(=O)O (centres undefined)
inactive: endpoint: mean survival time, dose: 25.0 mg/kg/injection, schedule: Q01DX009 (ip), vehicle: saline 92 % of control | [7] 86 % of control | [8] 95 % of control

CCOC(=O)c1c(C)csc1NC(C)=O
inactive: [1] 108 % of control | [2] 96 % of control | [3] 97 % of control | [4] 98 % of control | [5] 90 % of control | [6] 93 % of control

CC1SC(=S)NC1=O (centres undefined)
inactive: endpoint: mean survival time, dose: 100.0 mg/kg/injection, schedule: Q04DX003 (ip), vehicle: saline sonified 93 % of control | endpoint: mean survival time, dose: 200.0 mg/kg/injection, schedule: Q04DX003 (ip), vehicle: saline sonified 113 % of control | endpoint: mean survival time, dose: 400.0 mg/kg/injection, schedule: Q04DX003 (ip), vehicle: saline sonified 96 % of control

S=c1[nH]nc2n1NC(c1ccoc1)=NN2
inactive: endpoint: mean survival time, dose: 25.0 mg/kg/injection, schedule: Q04DX003 (ip), vehicle: saline with Tween-80 96 % of control | endpoint: mean survival time, dose: 50.0 mg/kg/injection, schedule: Q04DX003 (ip), vehicle: saline with Tween-80 100 % of control | [2] 90 % of control and 93 % of control | [4] 107 % of control

COC(=O)c1ccc(O)c([N+](=O)[O-])c1
inactive: [2] 104 % of control | [4] 93 % of control

CCCC(O)C(C)[N+](=O)[O-] (centres undefined)
inactive: [7] 96 % of control | [8] 106 % of control | endpoint: mean survival time, dose: 400.0 mg/kg/injection, schedule: Q01DX009 (ip), vehicle: saline 96 % of control

N#C[CH2][Sn]([I])([c]1ccccc1)[c]1ccccc1
inactive: endpoint: mean survival time, dose: 0.39 mg/kg/injection, schedule: Q01DX009 (ip), vehicle: saline 103 % of control | endpoint: mean survival time, dose: 0.78 mg/kg/injection, schedule: Q01DX009 (ip), vehicle: saline 100 % of control

Source: PubChem BioAssay AID256 (DTP/NCI, 2004)
